EC50, Ki and IC50 data for seven compounds are collected here from patent US7795278B2 (sanofi-aventis Deutschland GmbH, priority 2004, dated 2010).

Experiment [1] has as its system rat cardiomyocytes (H9c2 cell line). The experiment in a line: ATP consumption assay in cardiomyoblasts. Type of experiment: cell-based. The conditions noted are these: H9c2 cells, 15 min preincubation, 300 μM H2O2 for 1 hour, cellular ATP content by luciferase reaction. The method, then:
ATP Consumption Assay in Cardiomyoblasts
The activity of the test substances in cells is ascertained by means of an ATP consumption assay. For this purpose, rat cardiomyocytes (H9c2 cell line) are seeded in a 96-well plate (40 000 cells per well, RPMI1640; 10% FCS) and kept at 37° C. and 5% CO2 for 16 hours. The cells are washed with PBS and incubated under identical conditions with various concentrations of the test substance in medium for 15 min. After addition of 300 μM H2O2, the cells are kept at 37° C., 5% CO2 for a further hour and lysed, and the cellular content of ATP is determined by means of luciferase reaction. The half-maximum effective concentration of the substances (EC50) is determined as the concentration at which the ATP content of the cells has reached half the value which can be measured with a maximally effective concentration of the same substance.
(§1) EC-50 values and apparent Ki values are determined in this way for all the following selected compounds: […]

Experiment [2] addresses purified human PARP-1 enzyme (Homo sapiens, UniProt P09874). The experiment can be described thus: Enzyme inhibition assay with various substrate concentrations (apparent Ki). The class given is biochemical. The settings on record: various concentrations of tritium-labeled NAD, room temperature, 10 min; Michaelis-Menten, purely competitive inhibition assumed; read-out: app. Ki. The method, then: Enzyme Inhibition Assay with Various Substrate Concentrations
Apparent Ki values of the test substances are determined in an enzymatic assay using the purified human PARP-1 enzyme. Specifically, various concentrations of the tritium-labeled substrate NAD are incubated with an identical concentration of the test substance in 50 μl of reaction solution, which contains 50 mM tris, 5 mM MgCl2, 1 mM DTT, 0.1 mg/ml DNA, 0.1 mg/ml histones, 2 μg/ml recombinantly expressed human PARP-1 enzyme, pH=8.0, at room temperature for 10 min. The reaction is stopped by adding 150 μl of 20% trichloroacetic acid, and the radiolabeled protein constituents are precipitated. After incubation on ice for 10 minutes, the labeled, insoluble constituents are separated off through a glass fiber filter and, after washing with 20% trichloroacetic acid three times, the radioactivity incorporated by the PARP-1 enzyme is measured by radioluminescence. Evaluation of the incorporation rates determined in this way as a function of the concentration of the substrate NAD affords the apparent Ki values according to Michaelis-Menten kinetics, assuming that the mechanism of inhibition is purely competitive.
as §1

Experiment [3] addresses recombinantly expressed human PARP-1 enzyme (Homo sapiens, UniProt P09874). The experiment can be described thus: PARP enzyme assay (half-maximum inhibitor concentration). The settings on record: DNA-activated PARP-1, 200 μM NAD, tritium-labeled NAD incorporation, room temperature, 1 hour, pH 8.0. The class given is biochemical. The method, then: Pharmacological Investigations PARP Enzyme Assay
The half-maximum inhibitor concentration is determined by incubating the substances to be tested with the DNA-activated, recombinantly expressed and purified PARP-1 enzyme. Specifically, various concentrations of the test substance are incubated in 50 μl of reaction solution, which contains 50 mM Tris, 5 mM MgCl2, 1 mM DTT, 200 μM NAD, 0.1 mCi/ml tritium-labeled NAD, 0.1 mg/ml DNA, 0.1 mg/ml histones, 2 μg/ml recombinantly expressed human PARP-1 enzyme, pH=8.0, at room temperature for 1 hour. The reaction is stopped by adding 150 μl of 20% trichloroacetic acid, and the radiolabeled protein constituents are precipitated. After incubation on ice for 10 minutes, the labeled, insoluble constituents are separated off through a glass fiber filter and, after washing with 20% trichloroacetic acid three times, the radioactivity incorporated by the PARP-1 enzyme is measured by radioluminescence.
IC-50 values were determined in this way for the following compounds: […]

Chain of purified human PARP-1 enzyme (P09874 whole entry): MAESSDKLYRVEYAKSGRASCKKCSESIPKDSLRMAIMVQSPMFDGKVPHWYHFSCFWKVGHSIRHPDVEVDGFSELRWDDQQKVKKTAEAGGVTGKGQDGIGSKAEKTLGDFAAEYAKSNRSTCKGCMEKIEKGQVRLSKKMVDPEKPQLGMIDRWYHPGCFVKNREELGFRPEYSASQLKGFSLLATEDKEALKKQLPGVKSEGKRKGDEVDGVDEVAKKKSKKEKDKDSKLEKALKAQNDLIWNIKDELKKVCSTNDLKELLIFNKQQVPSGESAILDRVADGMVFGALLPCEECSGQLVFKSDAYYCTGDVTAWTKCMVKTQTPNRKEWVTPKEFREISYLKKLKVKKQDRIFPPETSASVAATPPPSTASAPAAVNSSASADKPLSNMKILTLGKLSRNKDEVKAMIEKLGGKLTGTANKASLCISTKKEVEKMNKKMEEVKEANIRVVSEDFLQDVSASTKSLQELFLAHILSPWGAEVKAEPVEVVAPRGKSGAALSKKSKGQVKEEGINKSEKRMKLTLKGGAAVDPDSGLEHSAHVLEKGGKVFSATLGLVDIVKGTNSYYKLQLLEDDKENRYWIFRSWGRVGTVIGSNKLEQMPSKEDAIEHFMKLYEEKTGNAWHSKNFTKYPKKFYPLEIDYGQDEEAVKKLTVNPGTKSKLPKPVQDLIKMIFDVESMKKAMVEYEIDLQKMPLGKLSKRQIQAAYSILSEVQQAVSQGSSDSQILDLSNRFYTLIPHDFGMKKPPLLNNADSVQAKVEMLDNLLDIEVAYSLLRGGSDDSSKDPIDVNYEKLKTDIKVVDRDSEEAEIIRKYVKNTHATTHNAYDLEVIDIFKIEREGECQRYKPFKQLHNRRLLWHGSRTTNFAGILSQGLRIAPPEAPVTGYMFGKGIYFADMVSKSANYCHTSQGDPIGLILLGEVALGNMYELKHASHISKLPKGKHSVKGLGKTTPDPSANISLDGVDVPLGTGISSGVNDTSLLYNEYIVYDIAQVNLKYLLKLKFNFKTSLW
Chain of recombinantly expressed human PARP-1 enzyme (P09874 whole entry): as above

`Cc1[nH]c(=O)c2c(c1-c1ccc(CO)o1)CCCC2` [Example 9, 4-(5-Hydroxymethylfuran-2-yl)-3-methyl-5,6,7,8-tetrahydro-2H-isoquinolin-1-one] yielded an EC50 in experiment [1] of 1570 nM. Also, the Ki in experiment [2] came out at 16 nM. Moreover, in experiment [3], the IC50 is 280 nM.

The compound `CC(=O)c1cccc(Nc2c(C)[nH]c(=O)c3c2CCCC3)c1` [Example 16, 4-(3-acetylphenylamino)-3-methyl-5,6,7,8-tetrahydro-2H-isoquinolin-1-one] showed an EC50 in experiment [1] of 200 nM. Further, the Ki in experiment [2] is 54 nM. The IC50 in experiment [3] stood at 90 nM.

Turning to `O=C(NCCN1CCCC1)c1cccc(Nc2c[nH]c(=O)c3c2CCCC3)c1` [Example 24, 3-(1-Oxo-1,2,5,6,7,8-hexahydroisoquinolin-4-ylamino)-N-(2-pyrrolidin-1-ylethyl)benzamide], in experiment [2], the Ki is 31 nM. Further, the IC50 in experiment [3] came to 220 nM.

In turn, `Cc1[nH]c(=O)c2c(c1-c1ccc(CN3CCCC3)o1)CCCC2` [Example 54, 3-methyl-4-(5-pyrrolidin-1-ylmethylfuran-2-yl)-5,6,7,8-tetrahydro-2H-isoquinolin-1-one] came in with an EC50 in experiment [1] of 330 nM. Also, the Ki in experiment [2] stood at 15 nM. Further, the IC50 in experiment [3] stood at 300 nM.

The compound `O=c1[nH]cc(-c2ccc(CNCC(O)c3ccccc3)o2)c2c1CCCC2` (stereo not drawn) [Example 72, 4-{5-[(2-hydroxy-2-phenyl-ethylamino)methyl]furan-2-yl}-5,6,7,8-tetrahydro-2H-isoquinolin-1-one] displayed an EC50 in experiment [1] of 380 nM. In experiment [2], the Ki turned out to be 24 nM. Besides, the IC50 in experiment [3] came to 110 nM.

For `CCCCNCc1ccc(-c2c[nH]c(=O)c3c2CCCC3)o1` [Example 78, 4-(5-butylaminomethylfuran-2-yl)-5,6,7,8-tetrahydro-2H-isoquinolin-1-one], the EC50 in experiment [1] was found to be 520 nM. In experiment [2], the Ki stood at 40 nM. Further, the IC50 in experiment [3] came to 250 nM.

As to `CC(=O)Nc1ccc(S(=O)(=O)NCc2ccc(-c3c[nH]c(=O)c4c3CCCC4)o2)cc1` [Example 87, N-(4-{[5-(1-oxo-1,2,5,6,7,8-hexahydroisoquinolin-4-yl)furan-2-ylmethyl]sulfamoyl}phenyl)acetamide], the IC50 in experiment [3] came out at 3770 nM.
